Our source for the Ki values is patent US8044079B2, “Substituted oxindole derivatives, medicaments containing said derivatives and use thereof” (Abbott GmbH & Co. KG, priority 2005, dated 2011).

In this test the target is T1, human vasopressin V1b receptor (Homo sapiens, UniProt P47901).
T1 construct: expressed in transfected cells; host or cells: CHO-K1 (cell line hV1b_3H2_CHO), membrane preparation
T1 sequence (P47901 1-424): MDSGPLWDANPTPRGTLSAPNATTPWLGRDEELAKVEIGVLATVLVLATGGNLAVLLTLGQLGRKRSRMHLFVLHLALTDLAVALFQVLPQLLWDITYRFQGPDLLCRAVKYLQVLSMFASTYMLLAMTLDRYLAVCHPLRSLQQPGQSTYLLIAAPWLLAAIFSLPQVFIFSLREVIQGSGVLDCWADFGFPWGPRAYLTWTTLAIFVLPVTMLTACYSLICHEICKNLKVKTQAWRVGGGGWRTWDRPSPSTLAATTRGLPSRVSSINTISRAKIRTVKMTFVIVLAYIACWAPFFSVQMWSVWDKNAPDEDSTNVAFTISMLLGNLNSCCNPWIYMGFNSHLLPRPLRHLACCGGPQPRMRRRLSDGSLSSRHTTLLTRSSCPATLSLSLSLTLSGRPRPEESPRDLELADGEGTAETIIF
Put plainly: Vasopressin V1b receptor binding test. The note with it: membranes of CHO-K1 cells with human V1b receptor, displacement of 1.5 nM 3H-AVP; for compounds with more than one stereogenic center the diastereomer with greater affinity. In a few lines:
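Affinity constants (Ki) came from nonlinear regression of triplicate scintillation counts after filtration separated bound from free radioligand. Compounds competed at human V1b membranes for 60 min, room temperature, in pH 7.4 tris/MgCl2/BSA buffer with 2% DMSO; 1 μM AVP defined nonspecific binding.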

SMILES strings stand for the structures.

Turning to `COc1ccc(S(=O)(=O)N2C(=O)C(c3cc(CN4CCN(C)CC4)ccc3OC)(N3CCC[C@H]3c3ncco3)c3cc(Cl)c(F)cc32)cc1` (stereo partly drawn) [Example 198, 5-Chloro-6-fluoro-1-(4-methoxybenzenesulfonyl)-3-[2-methoxy-5-(4-methylpiperazin-1-ylmethyl)phenyl]-3-((S)-2-oxazol-2-yl-pyrrolidin-1-yl)-1,3-dihydroindol-2-one], the Ki – broadly, a dissociation constant, usually derived from enzyme kinetics or from competition with a known ligand – was under 10 nM. The result for `CCN1CCN(Cc2ccc(C3(N4CCC[C@H]4c4ncco4)C(=O)N(S(=O)(=O)c4ccc(OC)cc4)c4ccc(Cl)c(F)c43)c(OC)c2)CC1` (stereo partly drawn) [Example 199, 5-Chloro-3-[4-(4-ethylpiperazin-1-ylmethyl)-2-methoxyphenyl]-4-fluoro-1-(4-methoxybenzenesulfonyl)-3-((S)-2-oxazol-2-yl-pyrrolidin-1-yl)-1,3-dihydroindol-2-one] reads under 10 nM. To `COc1ccc(S(=O)(=O)N2C(=O)C(c3cc(CN4CCNCC4)ccc3OC)(N3CCC[C@H]3c3ncco3)c3cc(Cl)c(F)cc32)cc1` (stereo partly drawn) [Example 200, 5-Chloro-6-fluoro-1-(4-methoxybenzenesulfonyl)-3-(2-methoxy-5-piperazin-1-ylmethylphenyl)-3-((S)-2-oxazol-2-yl-pyrrolidin-1-yl)-1,3-dihydroindol-2-one] belongs under 10 nM; to `COc1ccc(S(=O)(=O)N2C(=O)C(c3ccc(CN4CCN(C)CC4)cc3OC)(N3CCC[C@H]3c3ncco3)c3cc(Cl)c(F)cc32)cc1` (stereo partly drawn) [Example 201, 5-Chloro-6-fluoro-1-(4-methoxybenzenesulfonyl)-3-[2-methoxy-4-(4-methylpiperazin-1-ylmethyl)phenyl]-3-((S)-2-oxazol-2-yl-pyrrolidin-1-yl)-1,3-dihydroindol-2-one], under 10 nM; to `CCOc1ccc(CN2CCN(C)CC2)cc1C1(N2CCC[C@H]2c2ncco2)C(=O)N(S(=O)(=O)c2ccc(OC)cc2)c2ccc(Cl)cc21` (stereo partly drawn) [Example 202, 5-Chloro-3-[2-ethoxy-5-(4-methylpiperazin-1-ylmethyl)phenyl]-1-(4-methoxybenzenesulfonyl)-3-((S)-2-oxazol-2-yl-pyrrolidin-1-yl)-1,3-dihydroindol-2-one], 10 to 100 nM. The result for `CCOc1ccc(CNC)cc1C1(N2CCC[C@H]2c2ncco2)C(=O)N(S(=O)(=O)c2ccc(OC)cc2)c2ccc(Cl)cc21` (stereo partly drawn) [Example 203, 5-Chloro-3-(2-ethoxy-5-methylaminomethylphenyl)-1-(4-methoxybenzenesulfonyl)-3-((S)-2-oxazol-2-yl-pyrrolidin-1-yl)-1,3-dihydroindol-2-one] reads 10 to 100 nM. In turn, `CCOc1ccc(CN(C)C)cc1C1(N2CCC[C@H]2c2ncco2)C(=O)N(S(=O)(=O)c2ccc(OC)cc2)c2ccc(Cl)cc21` (stereo partly drawn) [Example 204, 5-Chloro-3-(5-dimethylaminomethyl-2-ethoxyphenyl)-1-(4-methoxybenzenesulfonyl)-3-((S)-2-oxazol-2-yl-pyrrolidin-1-yl)-1,3-dihydroindol-2-one] registered an inhibition constant (Ki) of 10 to 100 nM. The result for `CCOc1ccc(CNC(C)C)cc1C1(N2CCC[C@H]2c2ncco2)C(=O)N(S(=O)(=O)c2ccc(OC)cc2)c2ccc(Cl)cc21` (stereo partly drawn) [Example 205, 5-Chloro-3-[2-ethoxy-5-(isopropylaminomethyl)phenyl]-1-(4-methoxybenzenesulfonyl)-3-((S)-2-oxazol-2-yl-pyrrolidin-1-yl)-1,3-dihydroindol-2-one] reads 10 to 100 nM. The result for `CCNCc1ccc(OCC)c(C2(N3CCC[C@H]3c3ncco3)C(=O)N(S(=O)(=O)c3ccc(OC)cc3)c3ccc(Cl)cc32)c1` (stereo partly drawn) [Example 206, 5-Chloro-3-(2-ethoxy-5-ethylaminomethylphenyl)-1-(4-methoxybenzenesulfonyl)-3-((S)-2-oxazol-2-yl-pyrrolidin-1-yl)-1,3-dihydroindol-2-one] reads 10 to 100 nM. As for `COc1ccc(S(=O)(=O)N2C(=O)C(c3cc(CN4CCN(C)CC4)ccc3OC)(N3CCC[C@H]3c3ncon3)c3cc(Cl)ccc32)cc1` (stereo partly drawn) [Example 207, 5-Chloro-1-(4-methoxybenzenesulfonyl)-3-[2-methoxy-5-(4-methylpiperazin-1-ylmethyl)phenyl]-3-((S)-2-[1,2,4]oxadiazol-3-yl-pyrrolidin-1-yl)-1,3-dihydroindol-2-one], the inhibition constant Ki was under 10 nM. To `COc1ccc(S(=O)(=O)N2C(=O)C(c3cc(CN4CCNCC4)ccc3OC)(N3CCC[C@H]3c3ncon3)c3cc(Cl)ccc32)cc1` (stereo partly drawn) [Example 208, 5-Chloro-1-(4-methoxybenzenesulfonyl)-3-(2-methoxy-5-piperazin-1-ylmethylphenyl)-3-((S)-2-[1,2,4]oxadiazol-3-yl-pyrrolidin-1-yl)-1,3-dihydroindol-2-one] belongs 10 to 100 nM.

Turning to `COc1ccc(S(=O)(=O)N2C(=O)C(c3cc(CN(C)C)ccc3OC)(N3CCC[C@H]3c3ncon3)c3cc(Cl)ccc32)cc1` (stereo partly drawn) [Example 209, 5-Chloro-3-(5-dimethylaminomethyl-2-methoxyphenyl)-1-(4-methoxybenzenesulfonyl)-3-((S)-2-[1,2,4]oxadiazol-3-yl-pyrrolidin-1-yl)-1,3-dihydroindol-2-one], the Ki was under 10 nM.

`COc1ccc(S(=O)(=O)N2C(=O)C(c3cc(CN4CCCC4)ccc3OC)(N3CCC[C@H]3c3ncon3)c3cc(Cl)ccc32)cc1` (stereo partly drawn) [Example 210, 5-Chloro-1-(4-methoxybenzenesulfonyl)-3-(2-methoxy-5-pyrrolidin-1-ylmethylphenyl)-3-((S)-2-[1,2,4]oxadiazol-3-yl-pyrrolidin-1-yl)-1,3-dihydroindol-2-one] showed an inhibitory constant (Ki) of under 10 nM. The result for `COc1ccc(S(=O)(=O)N2C(=O)C(c3ccc(CN4CCNCC4)cc3OC)(N3CCC[C@H]3c3ncco3)c3cc(Cl)c(F)cc32)cc1` (stereo partly drawn) [Example 211, 5-Chloro-6-fluoro-1-(4-methoxybenzenesulfonyl)-3-(2-methoxy-4-piperazin-1-ylmethylphenyl)-3-((S)-2-oxazol-2-yl-pyrrolidin-1-yl)-1,3-dihydroindol-2-one] reads under 10 nM; that for `COc1ccc(S(=O)(=O)N2C(=O)C(c3ccc(CN4CCN(CCO)CC4)cc3OC)(N3CCC[C@H]3c3ncco3)c3cc(Cl)c(F)cc32)cc1` (stereo partly drawn) [Example 212, 5-Chloro-6-fluoro-3-{4-[4-(2-hydroxyethyl)piperazin-1-ylmethyl]-2-methoxyphenyl}-1-(4-methoxybenzenesulfonyl)-3-((S)-2-oxazol-2-yl-pyrrolidin-1-yl)-1,3-dihydroindol-2-one], under 10 nM. To `COc1ccc(S(=O)(=O)N2C(=O)C(c3cc(CN4CCCC4)ccc3OC)(N3C[C@H](OC(C)(C)C)C[C@H]3c3ncco3)c3cc(Cl)ccc32)cc1` (stereo partly drawn) [Example 213, 3-((2S,4R)-4-tert-butoxy-2-oxazol-2-yl-pyrrolidin-1-yl)-5-chloro-1-(4-methoxybenzenesulfonyl)-3-(2-methoxy-5-pyrrolidin-1-ylmethylphenyl)-1,3-dihydroindol-2-one] belongs 10 to 100 nM; to `COc1ccc(S(=O)(=O)N2C(=O)C(c3cc(CN4CCN(C)CC4)ccc3OC)(N3C[C@H](OC(C)(C)C)C[C@H]3c3ncco3)c3cc(Cl)ccc32)cc1` (stereo partly drawn) [Example 214, 3-((2S,4R)-4-tert-butoxy-2-oxazol-2-yl-pyrrolidin-1-yl)-5-chloro-1-(4-methoxybenzenesulfonyl)-3-[2-methoxy-5-(4-methylpiperazin-1-ylmethyl)phenyl]-1,3-dihydroindol-2-one], under 10 nM; to `COc1ccc(S(=O)(=O)N2C(=O)C(c3cc(CN4CCN(CCO)CC4)ccc3OC)(N3C[C@H](OC(C)(C)C)C[C@H]3c3ncco3)c3cc(Cl)ccc32)cc1` (stereo partly drawn) [Example 215, 5-Chloro-3-((2S,4R)-4-tert-butoxy-2-oxazol-2-yl-pyrrolidin-1-yl)-3-{5-[4-(2-hydroxyethyl)piperazin-1-ylmethyl]-2-methoxyphenyl}-1-(4-methoxybenzenesulfonyl)-1,3-dihydroindol-2-one], 10 to 100 nM.

Consider `CCNCc1ccc(OC)c(C2(N3CCC[C@H]3c3ncon3)C(=O)N(S(=O)(=O)c3ccc(OC)cc3)c3ccc(Cl)cc32)c1` (stereo partly drawn) [Example 216, 5-Chloro-3-(5-ethylaminomethyl-2-methoxyphenyl)-1-(4-methoxybenzenesulfonyl)-3-((S)-2-[1,2,4]oxadiazol-3-yl-pyrrolidin-1-yl)-1,3-dihydroindol-2-one], for which the Ki was under 10 nM. The result for `CNCc1ccc(C2(N3C[C@H](O)C[C@H]3c3ncco3)C(=O)N(S(=O)(=O)c3ccc(OC)cc3)c3ccc(Cl)cc32)c(OC)c1` (stereo partly drawn) [Example 217, 5-Chloro-3-((2S,4R)-4-hydroxy-2-oxazol-2-yl-pyrrolidin-1-yl)-1-(4-methoxybenzenesulfonyl)-3-(2-methoxy-4-methylaminomethylphenyl)-1,3-dihydroindol-2-one] reads under 10 nM; that for `COc1ccc(S(=O)(=O)N2C(=O)C(c3cc(CN(C)C)ccc3OC)(N3C[C@H](OC(C)(C)C)C[C@H]3c3ncco3)c3cc(Cl)ccc32)cc1` (stereo partly drawn) [Example 218, 3-((2S,4R)-4-tert-butoxy-2-oxazol-2-yl-pyrrolidin-1-yl)-5-chloro-3-(5-dimethylaminomethyl-2-methoxyphenyl)-1-(4-methoxybenzenesulfonyl)-1,3-dihydroindol-2-one], 10 to 100 nM.
